What was measured:
[1] = Absorption characteristic of the dye in dichloromethane; type: physicochemical; conditions: for λ80 (wavelength with 80% transmittance on shorter wavelength side of λmax) / λmax − λ80: dichloromethane, transmittance at λmax set to 10%; for εA (maximum absorption coefficient in a wavelength of 430 to 550 nm) / εB (maximum absorption coefficient in a wavelength of 670 to 730 nm) / εB/εA / λmax (maximum absorption wavelength): dissolved in dichloromethane
Description: The dyes obtained above were each dissolved in dichloromethane, and using an ultraviolet-visible spectrophotometer (made by Hitachi High Technologies Co., Ltd., U-4100 type), each spectral transmittance curve was measured, from which a maximum absorption wavelength λmax, a wavelength λ80 with which the transmittance becomes 80% on a shorter wavelength side than the maximum absorption wavelength with the transmittance at the maximum absorption wavelength set to 10%, the difference between the maximum absorption wavelength λmax and the wavelength λ80 (λmax−λ80), a maximum absorption coefficient εA in a wavelength of 430 to 550 nm, a maximum absorption coefficient εB in a wavelength of 670 to 730 nm, and a ratio of these (εB/εA) were calculated. Note that measurement of the dye (A9) was not performed because its solubility was low. Further, for each of the following spectral transmittance curves, an ultraviolet-visible spectrophotometer (made by Hitachi High Technologies Co., Ltd., U-4100 type) was used.

[2] = Solubility of dye to resin solution; type: physicochemical; conditions: for Solubility Evaluation / Solubility: 12.5 mass % polyester resin OKP850 in cyclohexanone:MIBK 1:1, 50° C.; for Solubility: stirred two hours, visual; for Solubility to the resin solution (in words): polyester resin OKP850 solution, 50° C., compared to dyes without branch structure in R^1
Description: Regarding several kinds of the dyes obtained above, solubility to a resin solution was evaluated. In a solubility test, as the resin solution, there was used a solution having a resin concentration of 12.5 mass % that was prepared by dissolving a polyester resin (product name: OKP850 made by Osaka Gas Chemicals Co., Ltd.) in a mixed solvent (cyclohexanone:methyl isobutyl ketone (MIBK)=1:1). Results are illustrated in Table 5 together with the kinds of the used dyes. Incidentally, the temperature of the resin solution in the solubility test was 50° C., the dye was put into the resin solution, the resultant resin solution was stirred for two hours, and whether or not the dye was dissolved was observed visually. Evaluation criteria of the solubility are as follows.
A: Solubility greater than 10 mass %
B: Solubility greater than 5 mass % and 10 mass % or less
C: Solubility 5 mass % or less

Row | λ80 (wavelength with 80% transmittance on shorter wavelength side of λmax) [1] [nm] | λmax − λ80 [1] [nm] | εA (maximum absorption coefficient in a wavelength of 430 to 550 nm) [1] | εB (maximum absorption coefficient in a wavelength of 670 to 730 nm) [1] | εB/εA [1] | λmax (maximum absorption wavelength) [1] [nm] | Solubility Evaluation [2] | Solubility [2] [mass %] | Solubility to the resin solution (in words) [2] | Structure (SMILES)
1 | 656 | 49 | 0.0143 | 1 | 69.9 | 705 | A (greater than 10 mass %) | 12 | high solubility | CCCCCCCCS(=O)(=O)Nc1cc2c(cc1C1=C([O-])C(=c3cc4c(cc3NS(=O)(=O)CCCCCCCC)=[N+](C(C)(C)CC)C(C)C4(C)C)C1=O)C(C)(C)C(C)N2C(C)(C)CC (stereo not shown) [Dye A1-21]
2 | 634 | 63 | 0.0066 | 1 | 152 | 697 | C (5 mass % or less) | 5 | – | CC1N(C)c2cc(NS(=O)(=O)C(F)(F)F)c(C3=C([O-])C(=c4cc5c(cc4NS(=O)(=O)C(F)(F)F)=[N+](C)C(C)C5(C)C)C3=O)cc2C1(C)C (stereo not shown) [Dye A1-2]
3 | 630 | 61 | 0.0130 | 1 | 76.9 | 691 | C (5 mass % or less) | 1 | – | CCCCCCCCS(=O)(=O)Nc1cc2c(cc1C1=C([O-])C(=c3cc4c(cc3NS(=O)(=O)CCCCCCCC)=[N+](C)C(C)C4(C)C)C1=O)C(C)(C)C(C)N2C (stereo not shown) [Dye A1-1]

More lines, now with the values behind:

Row | Structure (SMILES) | λ80 (wavelength with 80% transmittance on shorter wavelength side of λmax) [1] [nm] | λmax − λ80 [1] [nm] | εA (maximum absorption coefficient in a wavelength of 430 to 550 nm) [1] | εB (maximum absorption coefficient in a wavelength of 670 to 730 nm) [1] | εB/εA [1] | λmax (maximum absorption wavelength) [1] [nm] | Solubility Evaluation [2] | Solubility [2] [mass %] | Solubility to the resin solution (in words) [2]
4 | CCCCCCCCS(=O)(=O)Nc1cc2c(cc1C1=C([O-])C(=c3cc4c(cc3NS(=O)(=O)CCCCCCCC)=[N+](C(C)C)C(C)C4(C)C)C1=O)C(C)(C)C(C)N2C(C)C (stereo not shown) [Dye A1-15] | 646 | 52 | 0.0112 | 1 | 89.3 | 698 | A (greater than 10 mass %) | 15 | high solubility
5 | CC(C)N1c2cc(NS(=O)(=O)c3ccc(C(F)(F)F)cc3)c(C3=C([O-])C(=c4cc5c(cc4NS(=O)(=O)c4ccc(C(F)(F)F)cc4)=[N+](C(C)C)C(C)C5(C)C)C3=O)cc2C(C)(C)C1C (stereo not shown) [Dye A1-16] | 650 | 52 | 0.0111 | 1 | 90.1 | 702 | A (greater than 10 mass %) | 12 | high solubility
6 | CC(C)N1c2cc(NS(=O)(=O)C(F)(F)F)c(C3=C([O-])C(=c4cc5c(cc4NS(=O)(=O)C(F)(F)F)=[N+](C(C)C)C(C)C5(C)C)C3=O)cc2C(C)(C)C1C (stereo not shown) [Dye A1-9] | 651 | 52 | 0.0082 | 1 | 122 | 703 | A (greater than 10 mass %) | 12 | high solubility

From patent US10351718B2, “Optical filter and imaging device” (AGC Inc., priority 2015, dated 2019)
